Test results from PMC10424179, “Disrupting Kaposi’s Sarcoma-Associated Herpesvirus (KSHV) Latent Replication with a Small Molecule Inhibitor” (Journal of Medicinal Chemistry, 2023).
Converted amounts (≈) assume the structure as drawn.

Legend:
[1] = Kinetic solubility; format: physicochemical; conditions: PBS with 1% DMSO; 1% DMSO in PBS, pH 7.4
Experimental: (§1) The next step was an in vitro ADMET profiling of the best seven compounds so far: 9, 11, 14, 19, 20, 21, and 27. The compounds were tested for their kinetic solubility (1% DMSO in PBS, pH 7.4), lipophilicity (chromatographic Log D7.4 value), cellular permeability (using Caco-2 cells), and metabolic stability (using mouse and human liver S9 fractions) (see Table 3).
The desired compounds were sequentially diluted in DMSO in a 96-well plate. 1.5 µL of each well were transferred into another 96-well plate and mixed with 148.5 µL of PBS. Plates were shaken for 5 min at 600 rpm at room temperature (r.t.), and the absorbance at 620 nm was measured. Absorbance values were normalized by blank subtraction and plotted using GraphPad Prism 8.4.2 (GraphPad Software, San Diego, CA, USA). Solubility (S) was determined based on the First X value of AUC function using a threshold of 0.005. […]

[2] = Metabolic stability in mouse liver S9 fraction; format: in vitro ADME; conditions: pooled liver S9 fraction, mouse liver S9, 1 μM compound; for microsomal CLint at 1 µM: read-out: MetStab Mouse Liver S9 Clint; for half-life at 1 µM: read-out: MetStab Mouse Liver S9 t1/2
Experimental: as §1, with “3). […]” for “3).”
(§2) 1.7 Metabolic Stability in Liver S9 Fractions
(§3) For the evaluation of combined phase I and phase II metabolic stability, the compound (1 μM) was incubated with 1 mg/mL pooled mouse liver S9 fraction (Xenotech, Kansas City, USA) or human liver S9 fraction (Corning, USA), 2 mM NADPH, 1 mM UDPGA, 10 mM MgCl 2, 5 mM GSH and 0.1 mM PAPS at 37 °C for 240 min. The metabolic stability of testosterone, verapamil and ketoconazole were determined in parallel to confirm the enzymatic activity of mouse S9 fractions, for human S9 testosterone, diclofenac and propranolol were used. The incubation was stopped after defined time points by precipitation of aliquots of S9 enzymes with 2 volumes of cold acetonitrile containing internal standard (150 nM diphenhydramine). Samples were stored on ice until the end of the incubation and precipitated protein was removed by centrifugation (15 min, 4 °C, 4,000 g). Concentration of the remaining test compound at the different time points was analyzed by HPLC-MS/MS (TSQ Quantum Access MAX, Thermo Fisher, Dreieich, Germany) and used to determine half -life (t1/2). Values are means of three

[3] = Chromatographic LogD7.4; format: physicochemical; conditions: reversed-phase HPLC, NUCLEODUR C18 Pyramid column; pH 7.4, HPLC-MS based; read-out: Chrom. LogD7.4
Experimental: as §1, with “3). […]” for “3).”
LogD7.4 was analyzed using an HPLC−MS based method. The retention time of 12 compounds with known LogD7.4 was determined and plotted toward their LogD7.4. Linear regression was used to determine the LogD7.4 of unknown compounds. Analysis was performed using a Dionex Ultimate 3000 HPLC system coupled to a TSQ Quantum Access MAX (Thermo Fisher, Dreieich, Germany) with the following conditions: EC150/2 NUCLEODUR C18 Pyramid column, 5 μM (Macherey Nagel, Düren, Germany); eluent A: 50 mM NH4OAc pH 7.4, eluent B: acetonitrile, and flow: 0.6 mL/min. The gradient was set to 0−100% B from 0 to 2.5 min, […]
are means of two replicates. […]

[4] = target: T1, oligomerization-deficient mutant of a LANA C-terminal protein fragment (aa 1008–1146) (Human herpesvirus 8 (Kaposi's sarcoma-associated herpesvirus), UniProt Q76SB0); experiment: Microscale thermophoresis (MST) binding assay; parameters: species or system Kaposi's sarcoma-associated herpesvirus (KSHV); conditions: read-out: KD value (MST); LANA aa 1008–1146 mutant; means of at least three replicates
T1 sequence (Q76SB0 1008-1146): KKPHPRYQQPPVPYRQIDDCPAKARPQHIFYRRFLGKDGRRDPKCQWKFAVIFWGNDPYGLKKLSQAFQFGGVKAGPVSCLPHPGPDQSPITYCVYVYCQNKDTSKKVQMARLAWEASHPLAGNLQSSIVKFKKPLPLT
Description: (§4) In these assays, an oligomerization-deficient mutant of a LANA C-terminal protein fragment (aa 1008–1146) and an oligonucleotide representing LANA-binding site (LBS) 1 were used, which are convenient to use and handle for the described biophysical methods, while maintaining the essential DNA-binding interface.[25]
Equation y = A2 + (A1-A2)/(1 + (x/x0)^p)
1.3 Microscale Thermophoresis (MST) Assay
Microscale Thermophoresis Assay was done as mentioned in a previous publication. 2

[5] = Caco-2 cell permeability; format: in vitro ADME; conditions: human, pH 7.4, Caco-2 monolayer, apical to basolateral
Experimental: as §1
MTT Assay: Viability of HEK293 cells ~48 hours after treatment […]
Fig S4: MTT assay for compounds 11, 14, 19, 20 and 21 using HEK293 cells. Values are means of […]
Permeability of the compounds was assessed using Caco2 monolayers grown on Transwell® (3460 Costar, Corning). In brief, cells were seeded 60.000 cells/well in 12-well Transwell plates in DMEM medium supplemented with 10% FCS and 1% NEAA. Cells were grown for 7 to 9 days with medium replacement every other day until they reached a tight monolayer. Tightness was defined as transepithelial resistance (TEER) values >300 Ω/cm² (measured using an EVOM Volt-Ohmmeter, World Precision Instruments). At the day of permeability as say, the compound stock solutions in DMSO were diluted to 10µM in Krebs -Ringer-buffer (KRB, pH 7.4). Cells treated with KRB only served as control. Monolayer was washed two times with prewarmed KRB and incubated with 500 µl sample on the apical compartment. Samples from the basolateral side were drawn at t = 0, 15, 30, 60, 120, 180 and 300 min and replaced with fresh buffer. The plates were incubated for 5 h in a cell culture incubator with lateral shaking (200 rpm). TEER values were measured again at the end of the permeability test. Compound concentration was determined with HPLC-ESI-MS/MS in SRM mode and calculated for the cumulative transport. Values are means of three replicates.

[6] = target: LANA–DNA interaction (oligomerization-deficient LANA DBD aa 1008–1146 mutant / LBS1) (Human herpesvirus 8 (Kaposi's sarcoma-associated herpesvirus), UniProt Q76SB0); experiment: Electrophoretic mobility shift assay (EMSA), LANA DBD mutant with LBS1 oligonucleotide; format: biochemical, Kaposi's sarcoma-associated herpesvirus (KSHV); conditions: compound at 250 μM; LBS1 oligonucleotide; LANA aa 1008–1146 mutant
Experimental: as §4
Equation y = A2 + (A1-A2)/(1 + (x/x0)^p) […]
1.4 Electrophoretic Mobility Shift Assay (EMSA)
The EMSA was carried out with slight modific ations as described previously 2 based on the assay in Hellert et al. (2013). 3 His-tagged oligomerization-deficient LANA DBD (aa1008-1146) mutant protein or LANA DBD (aa934-1162) wild type protein (200 nM final) was incubated with a 5´-Dy682-labeled double stranded DNA probe (IBA Lifesciences) (20 nM final) for 30 minutes at RT in the dark. The reaction buffer consisted of 30 mM Tris HCl pH 7.5, 50 mM KCl, 10 mM MgCl2, 1 mM DTT, 1 mM EDTA, 10% glycerol, 0.25% Tween20, 0.5 mg/mL BSA and 0.05 mg/mL poly(dI-dC). […]
dark. 10 µL of the reaction was run on a pre -run native 5% acrylamide gel for 45 minutes at 100V with tris-borate-EDTA buffer. Images of the gels were acquired and analysed with the Odyssey (Licor) using the Image Studio software.
Fig S2: Gels of EMSA experiments at 250 μM for all compounds (A) and dose-dependent curves for compound 20 using LANA DBD mutant (B) and LANA wildtype (C) as well as LBS1. Values are means […]
Gleichung y = A2 + (A1-A2)/(1 + (x/x0)^p) […]

[7] = Metabolic stability in human liver S9 fraction; format: in vitro ADME; conditions: human liver S9, 1 μM compound; for microsomal CLint at 1 µM: read-out: MetStab Human Liver S9 Clint; for half-life at 1 µM: read-out: MetStab Human Liver S9 t1/2
Experimental: as §1, with “3). […]” for “3).”
as §2, §3

[8] = target: LANA; parameters: method as in PMID 30888817; conditions: cited from earlier work

SMILES	solubility kinetic at 5 min [1] [µM]	microsomal CLint at 1 µM [2] [µL/min/mg]	half-life at 1 µM [2] [h]	chromatographic logD [3]	Kd [4] [µM]	Papp A→B at 5 h, 10 µM [5] [×10⁻⁶ cm/s]	Inhibition (EMSA, LBS1) @250 μM [6] [%]	microsomal CLint at 1 µM [7] [µL/min/mg]	half-life at 1 µM [7] [h]	Kd [8] [µM]
Cc1cc(-c2ccc(C(=O)O)cc2)ncc1-n1cc(-c2ccc(C(=O)O)cc2)nn1 [Compound 27]	> 200	< 5.8	> 2	-1.92	11.4 ± 3.6	0.5 ± 0.2	98	< 5.8	> 2	
O=C(O)c1ccc(-c2cn(-c3cccnc3)nn2)cc1 [hit I]										23
COc1ncc(C)cc1-c1cc(C)c(-n2cc(-c3ccc(C(=O)O)cc3)nn2)cn1 [Compound 11]	> 200	< 5.8	> 2	0.42	18.8 ± 2.1	9.6 ± 1.4	96	< 5.8	> 2	
Cc1cc(-c2ccccc2Cl)ncc1-n1cc(-c2ccc(C(=O)O)cc2)nn1 [Compound 14]	> 200	< 5.8	> 2	0.67	4.2 ± 0.6	14.2 ± 1.8	92	< 5.8	> 2	
COc1cncc(-c2cc(C)c(-n3cc(-c4ccc(C(=O)O)cc4)nn3)cn2)c1 [Compound 9]	139 ± 18 (≈ 53.8 µg/mL)	< 5.8	> 2	-0.36	11 ± 1.9	2 ± 0.5	97	< 5.8	> 2	
Cc1cc(-c2ccccc2O)ncc1-n1cc(-c2ccc(C(=O)O)cc2)nn1 [Compound 21]	137 ± 20 (≈ 51 µg/mL)	< 5.8	> 2	0.62	18.8 ± 2.2	8.8 ± 1.1	94	< 5.8	> 2	
